Source: patent US10845371B2, “Soluble MANF in pancreatic beta-cell disorders” (University of Massachusetts, priority 2012, dated 2020)
Ends that are not written are not given here. Peptide text beside a SMILES is read from it. * marks the point of attachment. Cbz = O=C(OCc1ccccc1)*

Experiments:
[1] = test system: INS-1 832/13 cells; assay: Percentage of reduced cells (MEROS-GFP ratio >2) by flow cytometry after fatty acids; type: cell-based, rat; details: 0.5 mM palmitate plus 0.5 mM oleic or linoleic acid, 24 hours, FIG. 30
Description: The y-axis represents fluorescence following excitation using 488 nm and the x-axis represents fluorescence following excitation using 405 nm.
The data for cells treated with palmitate is shifted to the right.
The error bars indicate ±standard deviation (**p<0.01).

[2] = test system: MANF; assay: MANF mRNA in mouse primary islets treated with thapsigargin (real-time PCR); type: cell-based; details: 0.5 μM thapsigargin, 6 hours, FIG. 3
Protocol: FIG. 3 is a graph showing the relative expression of MANF, WFS1, TXNIP, and CHOP mRNA in mouse primary islets cultured five days with 5 mM glucose (LG), 11 mM glucose (MG), or 25 mM glucose (HG), or five days with 5 mM glucose (LG) and 6 hours with 0.5 μM thapsigargin (TG). The data shown were generated using quantitative real-time PCR (n=3; S.D.).
(§1) Experiments were performed to determine if expression of soluble MANF is induced in pancreatic β-cells in response to endoplasmic reticulum stress. These experiments were performed using rodent pancreatic β-cell lines (INS-1 832/13 and MIN6), primary mouse and human islets, and two different chemical agents that induce endoplasmic reticulum stress (thapsigargin and tunicamycin). INS-1 832/13 cells were cultured in RPMI-1640 containing 10% fetal bovine serum, penicillin, streptomycin, sodium pyruvate, and 0.1% β-mercaptoethanol. Primary islets were obtained from Prodo, and plated into 6-well plates precoated with laminin V produced by 804G cells, and cultured in CMRL medium supplemented with fetal bovine serum, non-essential amino acids, sodium pyruvate, and antibiotics.
(§2) A second set of experiments were performed using human primary islets from two human donors.

[3] = test system: MANF; assay: MANF protein (immunoblot) and mRNA (real-time PCR) in INS-1 832/13 cells treated with ER stress inducers; type: cell-based, rat; details: 24 hours; for MANF mRNA levels: 5 μM tunicamycin or 20 nM thapsigargin, FIG. 2
Protocol: FIG. 1 is an immunoblot showing the levels of MANF protein in concentrated medium from a culture of a rat pancreatic β-cell line (INS-1 832/13) or in lysate from the rat pancreatic β-cell line (INS-1 832/13) after no treatment or treatment with thapsigargin (50 nM) or tunicamycin (0.5 μg/mL) for 24 hours.
FIG. 2 is a graph showing the relative expression of MANF mRNA in a rat pancreatic β-cell line (INS-1 832/13) cultured under the following conditions: 11 mM glucose (24 hours); 25 mM glucose (24 hours); 25 mM glucose (48 hours); 25 mM glucose (72 hours); 11 mM glucose and 5 μM tunicamycin (TM) (24 hours); or 11 mM glucose and 20 nM thapsigargin (Tg) (24 hours). The data shown were generated using quantitative real-time PCR (n=3, S.D.).
as §1

[4] = test system: MANF; assay: MANF mRNA and soluble MANF protein in human primary islets treated with thapsigargin; type: cell-based; details: thapsigargin 0.25 μM, 24 hours
Protocol: The data shown were generated using quantitative real-time PCR (n=3; S.D.).
In this experiment, human MANF was immunoprecipitated using a rabbit anti-human MANF antibody (Proteintech), and the same antibody was used to develop the immunoblot.
as §1, §2

[5] = test system: MEROS-GFP (ER redox state) in INS-1 832/13 cells; assay: MEROS-GFP ratio by flow cytometry in INS-1 832/13 cells; type: cell-based, rat; details: normalized to untreated; DTT 0.2-10 mM; 1 mM H2O2 30 min; TM 5 μM, TG 10 nM 24 h or 1 μM 4 h, BreA 100 ng/mL, MG132, palmitate 0.2-0.5 mM, hIAPP 10 μM, 24 h; FIGS. 17-24
Protocol: FIG. 15 is fluorescence-assisted cell sorting (FACS) data of INS-1 832/13 cells stably-transfected with MEROS-GFP following no treatment or treatment with DTT (0.2, 0.5, or 10 mM DTT). The data was collected using excitation wavelengths of 488 nm and 405 nm, and an emission spectrum of 510 nm.
FIG. 16 is a histogram of FACS data of INS-1 832/13 cells stably-transfected with MEROS-GFP following no treatment or treatment with DTT (0.2 mM, 0.5 mM, or 10 mM DTT). The horizontal axis represents the MEROS-GFP ratio and the vertical axis represents the number of cells.
FIG. 17 is a graph of the median MEROS-GFP ratio in INS-1 832/13 cells stably-transfected with MEROS-GFP following no treatment or treatment with DTT (0.2, 0.5, or 10 mM DTT). The MEROS-GFP values shown are normalized to the untreated values.
FIG. 18 is two graphs showing data from FACS analysis of INS-1 832/13 cells stably-transfected with MEROS-GFP following no treatment or treatment with 1 mM H2O2 for 30 minutes. The right graph is a histogram of the MEROS-GFP ratio in INS-1 832/13 cells not treated or treated with 1 mM H202.
FIG. 19 is a graph of the median MEROS-GFP ratio calculated in INS-1 832/13 cells using FACS analysis following no treatment or treatment with tunicamycin (TM) (5 μM; 24 hours), thapsigargin (TG) (10 nM; 24 hours), TG (1 μM; 4 hours), brefeldin A (BreA) (100 ng/mL; 24 hours), or MG132 ([…]; 24 hours). […] The data are normalized to the median MEROS-GFP ratio calculated for the untreated cells.
The error bars represent ±S.D. The data are normalized to the median MEROS-GFP ratio calculated for the untreated cells.
FIG. 24 is a graph of the median MEROS-GFP ratio in INS-1 832/13 cells left untreated or treatment with human islet amyloid polypeptide (IAPP) (10 μM; 24 hours), mouse IAPP (10 μM; 24 hours), or cytokines ([…] (5 ng/mL), INFγ (100 ng/mL), and TNFα (25 ng/mL); 24 hours)). The error bars represent ±S.D. The data are normalized to the median MEROS-GFP ratio calculated for the untreated cells.
Flow cytometry was used to precisely monitor the MEROS-GFP ratio in vivo.
Experiments were performed to study the relationship between the UPR and the heterogeneity of the redox state. In these experiments, both the redox state and the activation levels of the UPR were monitored in the same cells. To achieve this, a UPR reporter gene encoding the red fluorescent protein, mCherry, driven by the human BiP promoter was constructed. […] This BiP-mCherry reporter plasmid was transfected into INS-1 832/13 cells expressing MEROS-GFP, and FACS analysis was used to monitor the MEROS-GFP ratio and the activation levels of the UPR via BiP-mCherry in the same cells (FIG. 31). The activation levels of BiP-mCherry and the MEROS-GFP ratio were monitored following the induction of ER stress. In these experiments, INS-1 832/13 cells expressing MEROS-GFP were plated onto 6-well plates, treated with each compound for indicated times, and then harvested by trypsinization. After washing with phosphate buffered saline, cells were resuspended in the 11 mM glucose-Hanks buffered salt solution. Flow cytometry analyses were performed with LSRII (BD).

[6] = test system: MEROS-GFP (ER redox state) in INS-1 832/13 cells; assay: MEROS-GFP ratio by fluorescent plate reader in INS-1 832/13 cells; type: cell-based, rat; details: 30 minutes; H2O2 0.1 or 1 mM, DTT 0.1-10 mM, FIG. 12
Protocol: FIG. 12 is a graph of the MEROS-GFP ratio in INS-1 832/13 cells left untreated (no label), or treated with H2O2 (1 or 0.1 mM H2O2) or DTT (0.1, 0.2, 0.5, 1, 2, 5, or 10 mM DTT). The MEROS-GFP ratio was determined using a plate reader. The data shown are mean±S.D. (n=3).
The ratio between fluorescence from excitation 473 nm versus 394 nm normalized to wild-type untreated cells is called the MEROS-GFP ratio. The MEROS-GFP ratio was determined using a fluorescent plate reader. In these experiments, the INS-1 832/13 cells were plated onto a 96-well plate at 50,000 cells/well, the cells treated with H2O2 or DTT at various concentrations for 30 minutes, and the fluorescence at excitation wavelength 473 nm and emission wavelength 510 nm (for reduced MEROS-GFP) or at excitation wavelength 394 nm and emission wavelength 510 nm (for oxidized MEROS-GFP) was measured. The MEROS-GFP ratio was determined after substraction of background signal.

CCCCC/C=C\C/C=C\CCCCCCCC(=O)O [linoleic acid]
Palmitate-induced reduced ER (percentage of reduced cells) [1]: significantly suppressed the ability of palmitate to create a reduced ER

C/C=C(/C)C(=O)O[C@H]1C(C)=C2[C@H]([C@@H]1OC(=O)CCCCCCC)[C@@](C)(OC(C)=O)C[C@H](OC(=O)CCC)[C@@]1(O)[C@H]2OC(=O)[C@@]1(C)O [thapsigargin]
MANF mRNA expression [2]: significant increase in MANF mRNA expression
MANF mRNA levels [3]: Elevated levels of MANF mRNA
Soluble MANF protein in the medium ([3]; thapsigargin 50 nM, FIG. 1): detected in the medium
Soluble MANF protein in the extracellular medium ([4]; FIGS. 5 and 6): production and release of soluble MANF protein into the extracellular medium
MANF mRNA expression ([4]; two donors, FIG. 4): significant increase in MANF mRNA expression
Median MEROS-GFP ratio (FACS) [5]: increased

CCCCCCCC/C=C\CCCCCCCC(=O)O [oleic acid]
Palmitate-induced reduced ER (percentage of reduced cells) [1]: significantly suppressed the ability of palmitate to create a reduced ER

human islet amyloid polypeptide (hIAPP): human islet amyloid polypeptide, physiological inducer of ER stress (KCNTATCATQRLANFLVHSSNNFGAILSSTNVGSNTY; not fully specified (C-terminus, bridges); cysteine pairing not given here; UniProt P10997 34-70, looked up)
Median MEROS-GFP ratio (FACS) [5]: increased

CC(C)C[C@@H](C=O)NC(=O)[C@H](CC(C)C)NC(=O)[C@H](CC(C)C)NC(=O)OCc1ccccc1 [MG 132] (Cbz-Leu-Leu-Leu-aldehyde)
Median MEROS-GFP ratio (FACS) [5]: increased

tunicamycin
MANF mRNA levels [3]: Elevated levels of MANF mRNA
Median MEROS-GFP ratio (FACS) [5]: increased

C[C@H]1CCC/C=C/[C@@H]2C[C@H](O)C[C@H]2[C@H](O)/C=C/C(=O)O1 [brefeldin A]
Median MEROS-GFP ratio (FACS) [5]: increased

OO [H2O2]
MEROS-GFP ratio (plate reader) [6]: did not change the MEROS-GFP ratio
Median MEROS-GFP ratio (FACS) [5]: did not change the MEROS-GFP ratio
